{"source": "ChEMBL document CHEMBL5241107", "about": "“Discovery of an eIF4A Inhibitor with a Novel Mechanism of Action” (J Med Chem, 2021)", "key": {"Reticulocyte [1]": {"test_system": "Reticulocyte", "assay": "Inhibition of eIF4A in rabbit reticulocyte lysate assessed as inhibition of cap-dependent translation of firefly luciferase using bicistronic luciferase reporter [pSP/(CAG)33/FF/HCV/Ren.pA51] incubated for 90 mins by luciferase reporter gene based luminescence analysis", "format": "subcellular", "details": "Oryctolagus cuniculus"}, "[2]": {"target": "T1, Eukaryotic initiation factor 4A-I (Homo sapiens, UniProt P60842)", "T1 sequence (P60842 whole entry)": "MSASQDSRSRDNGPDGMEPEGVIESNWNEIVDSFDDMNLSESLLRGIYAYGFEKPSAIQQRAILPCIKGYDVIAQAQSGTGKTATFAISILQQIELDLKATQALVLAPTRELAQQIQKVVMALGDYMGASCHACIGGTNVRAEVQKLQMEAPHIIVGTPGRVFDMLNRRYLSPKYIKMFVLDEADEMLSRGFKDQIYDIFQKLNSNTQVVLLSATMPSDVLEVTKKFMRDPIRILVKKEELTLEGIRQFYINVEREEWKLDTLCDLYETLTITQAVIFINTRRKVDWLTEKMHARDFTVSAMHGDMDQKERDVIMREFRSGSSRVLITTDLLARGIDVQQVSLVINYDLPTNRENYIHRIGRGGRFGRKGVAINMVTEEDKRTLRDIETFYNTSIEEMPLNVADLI", "assay": "Inhibition of helicase activity of human recombinant N-terminal His6-tagged eIF4A expressed in Escherichia coli BL21 CodonPlus cells assessed as decrease in single stranded signal using Cy3-labeled RNA strand and unlabeled DNA strand by native PAGE analysis"}, "[3]": {"target": "T1, Eukaryotic initiation factor 4A-I", "assay": "Binding affinity to human recombinant N-terminal His6-tagged eIF4A expressed in Escherichia coli BL21 CodonPlus cells assessed as increase in melting temperature at 3.13 to 50 uM incubated for 5 mins by differential scanning fluorimetry", "details": "dose 3.13-50 µM"}, "[4]": {"target": "Eukaryotic initiation factor 4A-I (Homo sapiens, UniProt P60842, R110E)", "sequence (P60842 2-406 R110E limits assumed)": "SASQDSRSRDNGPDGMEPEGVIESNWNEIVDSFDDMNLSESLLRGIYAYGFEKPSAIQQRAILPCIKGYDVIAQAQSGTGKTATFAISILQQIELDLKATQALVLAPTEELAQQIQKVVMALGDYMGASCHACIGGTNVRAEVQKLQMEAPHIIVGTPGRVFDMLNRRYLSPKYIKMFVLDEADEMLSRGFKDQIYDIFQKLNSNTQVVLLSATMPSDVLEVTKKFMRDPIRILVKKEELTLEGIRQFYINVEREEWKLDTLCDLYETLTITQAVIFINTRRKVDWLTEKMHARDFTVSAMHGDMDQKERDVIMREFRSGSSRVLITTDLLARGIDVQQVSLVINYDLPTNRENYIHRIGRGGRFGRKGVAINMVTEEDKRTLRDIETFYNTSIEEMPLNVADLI", "assay": "Inhibition of human recombinant N-terminal His6-tagged eIF4A R110E mutant expressed in Escherichia coli BL21 CodonPlus cells using ATP and yeast RNA as substrate preincubated with enzyme for 20 mins followed by susbtrate addition and measured after 4 hrs by Malachite green ATPase assay"}, "[5]": {"target": "T1, Eukaryotic initiation factor 4A-I", "assay": "Binding affinity to eIF4A in human A549 cells assessed as increase in thermal stability of the protein incubated for 90 mins by CETSA analysis", "format": "cell-based", "details": "dose 0.041-10 µM"}, "[6]": {"target": "Eukaryotic initiation factor 4A-I (Homo sapiens, UniProt P60842, T158A)", "sequence (P60842 2-406 T158A limits assumed)": "as the sequence (P60842 2-406 R110E limits assumed) above, with E109R, T157A counted along it", "assay": "Inhibition of human recombinant N-terminal His6-tagged eIF4A T158A mutant expressed in Escherichia coli BL21 CodonPlus cells using ATP and yeast RNA as substrate preincubated with enzyme for 20 mins followed by susbtrate addition and measured after 4 hrs by Malachite green ATPase assay"}, "[7]": {"target": "T1, Eukaryotic initiation factor 4A-I", "assay": "Uncompetitive inhibition of human recombinant N-terminal His6-tagged eIF4A expressed in Escherichia coli BL21 CodonPlus cells assessed as decrease in Km and Vmax of ATP using varying concentrations of ATP and 250 ug/ml yeast RNA as substrate preincubated with enzyme for 20 mins followed by substrate addition and measured after 1 to 7 hrs by Malachite green ATPase assay", "details": "time 80-440 min"}, "[8]": {"target": "Eukaryotic initiation factor 4A-I (Homo sapiens, UniProt P60842, R311K)", "sequence (P60842 2-406 R311K limits assumed)": "as the sequence (P60842 2-406 R110E limits assumed) above, with E109R, R310K counted along it", "assay": "Inhibition of human recombinant N-terminal His6-tagged eIF4A R311K mutant expressed in Escherichia coli BL21 CodonPlus cells using ATP and yeast RNA as substrate preincubated with enzyme for 20 mins followed by susbtrate addition and measured after 4 hrs by Malachite green ATPase assay"}, "BJAB": {"test_system": "BJAB", "assay": "Cytotoxicity against human BJAB cells assessed as reduction in cell viability measured after 72 hrs by CellTiter-Glo luminescent assay", "format": "functional, cell-based", "details": "Homo sapiens, BJAB, 72 h; read-out: EC50"}, "[9]": {"target": "T1, Eukaryotic initiation factor 4A-I", "assay": "Inhibition of helicase activity of human recombinant N-terminal His6-tagged eIF4A expressed in Escherichia coli BL21 CodonPlus cells assessed as increase in double stranded signal using Cy3-labeled RNA strand and unlabeled DNA strand by native PAGE analysis"}, "[10]": {"target": "T1, Eukaryotic initiation factor 4A-I", "assay": "Displacement of FAM-[AG]8 from human recombinant N-terminal His6-tagged eIF4A expressed in Escherichia coli BL21 CodonPlus cells preincubated with enzyme for 20 mins followed by FAM-[AG]8 addition for 30 mins by fluorescence polarization assay", "details": "time 50.0 min"}, "[11]": {"test_system": "Eukaryotic initiation factor 4A-I (Homo sapiens), P60842 [R110K]", "sequence (P60842 whole entry R110K)": "as the sequence (P60842 whole entry) above, with R110K counted along it", "assay": "Inhibition of human recombinant N-terminal His6-tagged eIF4A R110K mutant expressed in Escherichia coli BL21 CodonPlus cells using ATP and yeast RNA as substrate preincubated with enzyme for 20 mins followed by susbtrate addition and measured after 4 hrs by Malachite green ATPase assay", "details": "time 260.0 min"}, "[12]": {"target": "Eukaryotic initiation factor 4A-I (Homo sapiens, UniProt P60842, R311E)", "sequence (P60842 2-406 R311E limits assumed)": "as the sequence (P60842 2-406 R110E limits assumed) above, with E109R, R310E counted along it", "assay": "Inhibition of human recombinant N-terminal His6-tagged eIF4A R311E mutant expressed in Escherichia coli BL21 CodonPlus cells using ATP and yeast RNA as substrate preincubated with enzyme for 20 mins followed by susbtrate addition and measured after 4 hrs by Malachite green ATPase assay"}, "[13]": {"target": "T1, Eukaryotic initiation factor 4A-I", "assay": "Inhibition of helicase activity of human recombinant N-terminal His6-tagged eIF4A expressed in Escherichia coli BL21 CodonPlus cells using Cy3-labeled RNA strand and unlabeled DNA strand by native PAGE analysis"}, "[14]": {"target": "T1, Eukaryotic initiation factor 4A-I", "assay": "Competitive inhibition of human recombinant N-terminal His6-tagged eIF4A expressed in Escherichia coli BL21 CodonPlus cells assessed as […] with constant Vmax of RNA using 250 uM ATP and varying concentration of yeast RNA as substrate preincubated with enzyme for 20 mins followed by substrate addition and measured after 1 to 7 hrs by Malachite green ATPase assay", "details": "time 80-440 min"}, "[15]": {"target": "Eukaryotic initiation factor 4A-I (Homo sapiens, UniProt P60842, R110L)", "sequence (P60842 2-406 R110L limits assumed)": "as the sequence (P60842 2-406 R110E limits assumed) above, with E109L counted along it", "assay": "Inhibition of human recombinant N-terminal His6-tagged eIF4A R110L mutant expressed in Escherichia coli BL21 CodonPlus cells using ATP and yeast RNA as substrate preincubated with enzyme for 20 mins followed by susbtrate addition and measured after 4 hrs by Malachite green ATPase assay"}, "[16]": {"target": "T1, Eukaryotic initiation factor 4A-I", "assay": "Displacement of MANT-ATP from human recombinant N-terminal His6-tagged eIF4A expressed in Escherichia coli BL21 CodonPlus cells at 200 uM preincubated with enzyme and yeast RNA for 20 mins followed by MANT-ATP addition for 30 mins by fluorescence polarization assay", "details": "time 50.0 min"}, "Reticulocyte [17]": {"test_system": "Reticulocyte", "assay": "Inhibition of IRES-dependent translation of renilla luciferase in rabbit reticulocyte lysates using bicistronic luciferase reporter [pSP/(CAG)33/FF/HCV/Ren.pA51] incubated for 90 mins by luciferase reporter gene based luminescence analysis", "format": "functional, subcellular", "details": "Oryctolagus cuniculus"}, "[18]": {"target": "Eukaryotic initiation factor 4A-I (Homo sapiens, UniProt P60842, R110M)", "sequence (P60842 2-406 R110M limits assumed)": "as the sequence (P60842 2-406 R110E limits assumed) above, with E109M counted along it", "assay": "Inhibition of human recombinant N-terminal His6-tagged eIF4A R110M mutant expressed in Escherichia coli BL21 CodonPlus cells using ATP and yeast RNA as substrate preincubated with enzyme for 20 mins followed by susbtrate addition and measured after 4 hrs by Malachite green ATPase assay"}, "[19]": {"target": "Eukaryotic initiation factor 4A-I (Homo sapiens, UniProt P60842, T158V)", "sequence (P60842 2-406 T158V limits assumed)": "as the sequence (P60842 2-406 R110E limits assumed) above, with E109R, T157V counted along it", "assay": "Inhibition of human recombinant N-terminal His6-tagged eIF4A T158V mutant expressed in Escherichia coli BL21 CodonPlus cells using ATP and yeast RNA as substrate preincubated with enzyme for 20 mins followed by susbtrate addition and measured after 4 hrs by Malachite green ATPase assay"}}, "note": "Calls of active or inactive are those of the source. The rule behind the calls is not given here.", "data": [{"smiles": "CCCCc1ccc(-c2ccc(-c3cc(C(=O)O)c4cc([N+](=O)[O-])ccc4n3)o2)cc1", "values": [{"measurement": "inhibition", "setting": "Reticulocyte [1]", "result": "Active"}, {"measurement": "inhibition", "setting": "[2]", "result": "Active"}, {"measurement": "Activity", "setting": "[3]", "result": "Active"}, {"measurement": "IC50", "setting": "[4]", "result": "> 50", "unit": "µM"}, {"measurement": "Activity", "setting": "[5]", "result": "Dose-Dependent Effect"}, {"measurement": "IC50", "setting": "[6]", "result": "> 50", "unit": "µM"}, {"measurement": "inhibition", "setting": "[7]", "result": "Active"}, {"measurement": "IC50", "setting": "[8]", "result": "> 50", "unit": "µM"}, {"measurement": "EC50", "setting": "BJAB", "result": 463, "unit": "nM"}, {"measurement": "inhibition", "setting": "[9]", "result": "Active"}, {"measurement": "inhibition", "setting": "[10]", "result": "Active"}, {"measurement": "inhibition", "setting": "[11]", "result": "Active"}, {"measurement": "IC50", "setting": "[12]", "result": "> 50", "unit": "µM"}, {"measurement": "IC50", "setting": "[13]", "result": 6.58, "unit": "µM"}, {"measurement": "inhibition", "setting": "[14]", "result": "Active"}, {"measurement": "IC50", "setting": "[15]", "result": "> 50", "unit": "µM"}, {"measurement": "inhibition", "setting": "[16]", "result": "inactive"}, {"measurement": "inhibition", "setting": "Reticulocyte [17]", "result": "inactive"}, {"measurement": "IC50", "setting": "[18]", "result": "> 50", "unit": "µM"}, {"measurement": "IC50", "setting": "[19]", "result": "> 50", "unit": "µM"}]}]}
